In patent publication US9833497B2, “Human originated EGF domain proteins and use of the same” (CHENGDU SOURCEBIO LIMITED-LIABILITY COMPANY, priority 2013, dated 2017):

Experiments:
Type in all cases: cell-based
Citrobacter diversus = experiment: MIC against Gram-negative bacteria: Citrobacter diversus
Outline: (§1)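 Inocula prepared by growing LB cultures at 37° C to 0.5 McFarland, centrifuging at 4000×g, and resuspending in fresh medium. Final density 5×10^5 CFU/mL per well with two-fold dilutions of purified EGF domain protein; shaking incubation at 37° C.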

Enterobacter cloacae = experiment: MIC against Gram-negative bacteria: Enterobacter cloacae
Outline: as §1

Proteus mirabilis = experiment: MIC against Gram-negative bacteria: Proteus mirabilis
Outline: as §1

E. coli BL21 = experiment: MIC against Gram-negative bacteria: E. coli BL21
Outline: as §1

Serratia marcescens = experiment: MIC against Gram-negative bacteria: Serratia marcescens
Outline: as §1

Klebsiella pneumonia = experiment: MIC against Gram-negative bacteria: Klebsiella pneumonia
Outline: as §1

Proteus vulgaris = experiment: MIC against Gram-negative bacteria: Proteus vulgaris
Outline: as §1

Moraxella catarrhalis = experiment: MIC against Gram-negative bacteria: Moraxella catarrhalis
Outline: as §1

E. coli DH5α = experiment: Antibacterial activity: MIC and growth curve against E. coli DH5α in 96-well plate; conditions: minimal inhibitory concentration against E. coli DH5α; 96-well plate, 5×10^5 CFU/mL, 37° C., judged after 8 h
Outline: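 MIC taken as lowest protein level with no bacterial growth, tracked by A600 every 30 min during 37 °C, 175 rpm culture. Two-fold protein series 50-12.5 μg/mL final, triplicate wells, against 5×10^5 CFU/mL of LB-washed mid-log cells.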

Pseudomonas aeruginosa = experiment: MIC against Gram-negative bacteria: Pseudomonas aeruginosa
Outline: as §1

Aeromonas hydrophila = experiment: MIC against Gram-negative bacteria: Aeromonas hydrophila
Outline: as §1

[1] = 10 h cultivation at 37° C., 5×10^5 CFU/mL, two-fold serial dilution
[2] = Citrobacter diversus, 96-well plate, 5×10^5 CFU/mL, 37° C., 10 h
[3] = Enterobacter cloacae, 96-well plate, 5×10^5 CFU/mL, 37° C., 10 h
[4] = Proteus mirabilis, 96-well plate, 5×10^5 CFU/mL, 37° C., 10 h
[5] = E. coli BL21, 96-well plate, 5×10^5 CFU/mL, 37° C., 10 h
[6] = Serratia marcescens, 96-well plate, 5×10^5 CFU/mL, 37° C., 10 h
[7] = Klebsiella pneumonia, 96-well plate, 5×10^5 CFU/mL, 37° C., 10 h
[8] = Proteus vulgaris, 96-well plate, 5×10^5 CFU/mL, 37° C., 10 h
[9] = Moraxella catarrhalis, 96-well plate, 5×10^5 CFU/mL, 37° C., 10 h
[10] = Pseudomonas aeruginosa, 96-well plate, 5×10^5 CFU/mL, 37° C., 10 h
[11] = Aeromonas hydrophila, 96-well plate, 5×10^5 CFU/mL, 37° C., 10 h

PRT1346 (EVNECQSNPCLNNAVCEDQVGGFLCKCPPGFLGTRCG; listed as Homo sapiens)
MIC against C. diversus (Citrobacter diversus; Citrobacter diversus, 5×10^5 CFU/mL, 10 h cultivation at 37° C.): 25 µg/mL | MIC against E. cloacae (Enterobacter cloacae; Enterobacter cloacae, 5×10^5 CFU/mL, 10 h cultivation at 37° C.): 12.5 µg/mL | MIC against P. mirabilis (Proteus mirabilis; Proteus mirabilis, 5×10^5 CFU/mL, 10 h cultivation at 37° C.): 25 µg/mL | MIC against E. coli BL21 (E. coli BL21; E. coli BL21, 5×10^5 CFU/mL, 10 h cultivation at 37° C.): 25 µg/mL | MIC against S. marcescens (Serratia marcescens; Serratia marcescens, 5×10^5 CFU/mL, 10 h cultivation at 37° C.): 25 µg/mL | MIC against K. pneumonia (Klebsiella pneumonia; Klebsiella pneumonia, 5×10^5 CFU/mL, 10 h cultivation at 37° C.): 25 µg/mL | MIC against P. vulgaris (Proteus vulgaris; Proteus vulgaris, 5×10^5 CFU/mL, 10 h cultivation at 37° C.): 50 µg/mL | MIC against M. catarrhalis (Moraxella catarrhalis; Moraxella catarrhalis, 5×10^5 CFU/mL, 10 h cultivation at 37° C.): 12.5 µg/mL | MIC (E. coli DH5α): 12.5 µg/mL | MIC against P. aeruginosa (Pseudomonas aeruginosa; Pseudomonas aeruginosa, 5×10^5 CFU/mL, 10 h cultivation at 37° C.): 50 µg/mL | MIC against A. hydrophila (Aeromonas hydrophila; Aeromonas hydrophila, 5×10^5 CFU/mL, 10 h cultivation at 37° C.): 50 µg/mL

PRT1074 (QYRQCSGYCENFGTCQMAADGSRQCRCTAYFEGSRCE; listed as Homo sapiens)
MIC C. diversus (Citrobacter diversus; [1]): 12.5 µg/mL | MIC E. cloacae (Enterobacter cloacae; [1]): 12.5 µg/mL | MIC P. mirabilis (Proteus mirabilis; [1]): 12.5 µg/mL | MIC E. coli BL21 (E. coli BL21; [1]): 12.5 µg/mL | MIC S. marcescens (Serratia marcescens; [1]): 12.5 µg/mL | MIC K. pneumonia (Klebsiella pneumonia; [1]): 12.5 µg/mL | MIC P. vulgaris (Proteus vulgaris; [1]): 12.5 µg/mL | MIC M. catarrhalis (Moraxella catarrhalis; [1]): 12.5 µg/mL | MIC (E. coli DH5α): 50 µg/mL | MIC P. aeruginosa (Pseudomonas aeruginosa; [1]): 50 µg/mL | MIC A. hydrophila (Aeromonas hydrophila; [1]): 12.5 µg/mL

PRT1305 (SANACSAFKCHHGQCHISDQGEPYCLCQPGFSGEHCQ; listed as Homo sapiens)
MIC against C. diversus (Citrobacter diversus; [2]): 12.5 µg/mL | MIC against E. cloacae (Enterobacter cloacae; [3]): 12.5 µg/mL | MIC against P. mirabilis (Proteus mirabilis; [4]): 25 µg/mL | MIC against E. coli BL21 (E. coli BL21; [5]): 50 µg/mL | MIC against S. marcescens (Serratia marcescens; [6]): 12.5 µg/mL | MIC against K. pneumonia (Klebsiella pneumonia; [7]): 50 µg/mL | MIC against P. vulgaris (Proteus vulgaris; [8]): 25 µg/mL | MIC against M. catarrhalis (Moraxella catarrhalis; [9]): 50 µg/mL | MIC (E. coli DH5α): 12.5 µg/mL | MIC against P. aeruginosa (Pseudomonas aeruginosa; [10]): 12.5 µg/mL | MIC against A. hydrophila (Aeromonas hydrophila; [11]): 50 µg/mL

PRT1297 (NACLSSPCKNNGTCTQDPVELYRCACPYSYKGKDCT; listed as Homo sapiens)
MIC against C. diversus (Citrobacter diversus; [2]): 25 µg/mL | MIC against E. cloacae (Enterobacter cloacae; [3]): 50 µg/mL | MIC against P. mirabilis (Proteus mirabilis; [4]): 25 µg/mL | MIC against E. coli BL21 (E. coli BL21; [5]): 50 µg/mL | MIC against S. marcescens (Serratia marcescens; [6]): 50 µg/mL | MIC against K. pneumonia (Klebsiella pneumonia; [7]): 25 µg/mL | MIC against P. vulgaris (Proteus vulgaris; [8]): 12.5 µg/mL | MIC against M. catarrhalis (Moraxella catarrhalis; [9]): 50 µg/mL | MIC (E. coli DH5α): 12.5 µg/mL | MIC against P. aeruginosa (Pseudomonas aeruginosa; [10]): 12.5 µg/mL | MIC against A. hydrophila (Aeromonas hydrophila; [11]): 12.5 µg/mL

PRT895 (NIDECAGNPCHNGGTCEDGINGFTCRCPEGYHDPTCL; listed as Homo sapiens)
MIC (Citrobacter diversus; C. diversus, 10 h cultivation at 37° C.): 12.5 µg/mL | MIC (Enterobacter cloacae; E. cloacae, 10 h cultivation at 37° C.): 12.5 µg/mL | MIC (Proteus mirabilis; P. mirabilis, 10 h cultivation at 37° C.): 12.5 µg/mL | MIC (E. coli BL21; E. coli BL21, 10 h cultivation at 37° C.): 25 µg/mL | MIC (Serratia marcescens; S. marcescens, 10 h cultivation at 37° C.): 25 µg/mL | MIC (Klebsiella pneumonia; K. pneumonia, 10 h cultivation at 37° C.): 50 µg/mL | MIC (Proteus vulgaris; P. vulgaris, 10 h cultivation at 37° C.): 25 µg/mL | MIC (Moraxella catarrhalis; M. catarrhalis, 10 h cultivation at 37° C.): 50 µg/mL | MIC (E. coli DH5α): 50 µg/mL | MIC (Pseudomonas aeruginosa; P. aeruginosa, 10 h cultivation at 37° C.): 12.5 µg/mL | MIC (Aeromonas hydrophila; A. hydrophila, 10 h cultivation at 37° C.): 50 µg/mL

PRT879 (TLKQCASAPCRNGGVCREGWNRFICDCIGTGFLGRVCE; listed as Homo sapiens)
MIC (μg/mL) C. diversus (Citrobacter diversus; C. diversus, 10 h cultivation at 37° C., 5×10^5 CFU/mL): 25 µg/mL | MIC (μg/mL) E. cloacae (Enterobacter cloacae; E. cloacae, 10 h cultivation at 37° C., 5×10^5 CFU/mL): 25 µg/mL | MIC (μg/mL) P. mirabilis (Proteus mirabilis; P. mirabilis, 10 h cultivation at 37° C., 5×10^5 CFU/mL): 12.5 µg/mL | MIC (μg/mL) E. coli BL21 (E. coli BL21; E. coli BL21, 10 h cultivation at 37° C., 5×10^5 CFU/mL): 50 µg/mL | MIC (μg/mL) S. marcescens (Serratia marcescens; S. marcescens, 10 h cultivation at 37° C., 5×10^5 CFU/mL): 25 µg/mL | MIC (μg/mL) K. pneumonia (Klebsiella pneumonia; K. pneumonia, 10 h cultivation at 37° C., 5×10^5 CFU/mL): 12.5 µg/mL | MIC (μg/mL) P. vulgaris (Proteus vulgaris; P. vulgaris, 10 h cultivation at 37° C., 5×10^5 CFU/mL): 12.5 µg/mL | MIC (μg/mL) M. catarrhalis (Moraxella catarrhalis; M. catarrhalis, 10 h cultivation at 37° C., 5×10^5 CFU/mL): 12.5 µg/mL | MIC (E. coli DH5α): 25 µg/mL | MIC (μg/mL) P. aeruginosa (Pseudomonas aeruginosa; P. aeruginosa, 10 h cultivation at 37° C., 5×10^5 CFU/mL): 12.5 µg/mL | MIC (μg/mL) A. hydrophila (Aeromonas hydrophila; A. hydrophila, 10 h cultivation at 37° C., 5×10^5 CFU/mL): 12.5 µg/mL

PRT131 (AGHCSTYGHLCRNGGRCREKRRGVTCDCAFSAYDGPFCS; listed as Homo sapiens)
MIC (μg/mL) C. diversus (Citrobacter diversus; [2]): 12.5 µg/mL | MIC (μg/mL) E. cloacae (Enterobacter cloacae; [3]): 12.5 µg/mL | MIC (μg/mL) P. mirabilis (Proteus mirabilis; [4]): 100 µg/mL | MIC (μg/mL) E. coli BL21 (E. coli BL21; [5]): 12.5 µg/mL | MIC (μg/mL) S. marcescens (Serratia marcescens; [6]): 12.5 µg/mL | MIC (μg/mL) K. pneumonia (Klebsiella pneumonia; [7]): 12.5 µg/mL | MIC (μg/mL) P. vulgaris (Proteus vulgaris; [8]): 25 µg/mL | MIC (μg/mL) M. catarrhalis (Moraxella catarrhalis; [9]): 25 µg/mL | MIC (E. coli DH5α): 50 µg/mL | MIC (μg/mL) P. aeruginosa (Pseudomonas aeruginosa; [10]): 12.5 µg/mL | MIC (μg/mL) A. hydrophila (Aeromonas hydrophila; [11]): 12.5 µg/mL
